Experimental findings from article doi:10.1101/2022.11.14.516475v2 (biorxiv, 2022) are described below.

Some results are limits rather than exact numbers.

The inhibition is how much of the control response was suppressed. Usually IC50 stands for the concentration at which inhibition is half-maximal. The term koff denotes the first-order rate constant of dissociation.

The target of data set [1] is T1, D2 (Homo sapiens, UniProt P14416). The data set is classed as binding. Also on record: gene DRD2; full length; pcDNA3.1 mutants); DiscoverX beta-galactosidase fragment fusion for beta-arrestin assay. The following applies: wild-type control.
T1 sequence (P14416 whole entry, the tested form may be a part): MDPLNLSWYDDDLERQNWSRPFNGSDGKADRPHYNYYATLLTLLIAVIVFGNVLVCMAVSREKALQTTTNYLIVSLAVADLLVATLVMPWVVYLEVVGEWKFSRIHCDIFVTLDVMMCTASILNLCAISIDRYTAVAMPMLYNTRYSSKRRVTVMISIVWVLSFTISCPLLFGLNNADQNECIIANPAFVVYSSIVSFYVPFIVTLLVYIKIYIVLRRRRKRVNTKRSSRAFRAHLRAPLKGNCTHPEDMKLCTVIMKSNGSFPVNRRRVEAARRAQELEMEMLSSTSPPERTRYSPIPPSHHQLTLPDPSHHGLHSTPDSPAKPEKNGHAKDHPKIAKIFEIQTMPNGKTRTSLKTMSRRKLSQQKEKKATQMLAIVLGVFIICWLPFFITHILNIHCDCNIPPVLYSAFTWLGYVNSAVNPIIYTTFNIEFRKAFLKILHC
The target of data set [2] is T2, 5-HT2C serotonin receptor (Homo sapiens, UniProt P28335).
T2 construct: gene HTR2C
T2 sequence (P28335 33-458): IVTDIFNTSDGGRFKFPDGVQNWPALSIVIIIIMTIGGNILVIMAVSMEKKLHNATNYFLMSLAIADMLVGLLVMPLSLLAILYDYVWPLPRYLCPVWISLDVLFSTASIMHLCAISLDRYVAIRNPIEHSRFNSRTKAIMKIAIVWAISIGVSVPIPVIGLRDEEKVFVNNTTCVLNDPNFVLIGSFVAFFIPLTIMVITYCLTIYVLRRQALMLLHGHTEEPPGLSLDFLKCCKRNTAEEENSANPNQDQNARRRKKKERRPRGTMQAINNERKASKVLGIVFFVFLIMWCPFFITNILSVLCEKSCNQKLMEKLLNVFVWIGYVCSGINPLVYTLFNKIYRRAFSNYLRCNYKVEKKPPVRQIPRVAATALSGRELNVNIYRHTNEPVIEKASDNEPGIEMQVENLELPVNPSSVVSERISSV
The experiment in a line: PDSP radioligand binding competition. Particulars: read-out: % inhibition at 10 μM.

In a further data set the target is T3, D3 (Homo sapiens, UniProt P35462).
T3 construct: gene DRD3
T3 sequence (P35462 whole entry): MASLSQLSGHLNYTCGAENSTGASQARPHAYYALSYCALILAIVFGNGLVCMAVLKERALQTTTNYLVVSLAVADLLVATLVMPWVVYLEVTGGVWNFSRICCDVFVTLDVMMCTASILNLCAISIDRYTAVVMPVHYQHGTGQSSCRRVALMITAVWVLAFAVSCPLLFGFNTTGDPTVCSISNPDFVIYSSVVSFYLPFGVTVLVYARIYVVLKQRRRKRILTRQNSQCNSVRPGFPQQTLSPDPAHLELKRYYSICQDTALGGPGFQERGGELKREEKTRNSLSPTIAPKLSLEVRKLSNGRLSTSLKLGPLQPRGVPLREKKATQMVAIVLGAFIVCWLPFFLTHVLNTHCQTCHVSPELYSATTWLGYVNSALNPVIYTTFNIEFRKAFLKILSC
The experiment in a line: biochemical. The arrangement: PDSP radioligand binding competition, single concentration, % inhibition of specific binding. Particulars: read-out: ML321 (10 µM) % Inhibition. Here is the method: ML321 was screened using the National Institute of Mental Health Psychoactive Drug Screening Program (PDSP) directed by Dr. Bryan L. Roth (University of North Carolina, Chapel Hill, NC). For experimental details including radioligands used and associated Kd values for each individual target, please refer to the PDSP website http://pdsp.med.unc.edu/. […] Assays were performed in triplicate. To further assess ML321 selectivity amongst a larger group of drug targets, we used the NIMH Psychoactive Drug Screening Program (PDSP), which utilizes radioligand binding competition assays for 46 unique GPCRs, transporters and ion channels. For screening, a single high concentration (10 µM) of ML321 was used to compete for radioligand binding to the PDSP targets (Figure 1C).

In the next data set the target is T4, hERG K+ channel (Homo sapiens, UniProt Q12809).
T4 construct: gene KCNH2; expressed in HEK293 cells (Cyprotex), automated patch clamp
T4 sequence (Q12809 whole entry): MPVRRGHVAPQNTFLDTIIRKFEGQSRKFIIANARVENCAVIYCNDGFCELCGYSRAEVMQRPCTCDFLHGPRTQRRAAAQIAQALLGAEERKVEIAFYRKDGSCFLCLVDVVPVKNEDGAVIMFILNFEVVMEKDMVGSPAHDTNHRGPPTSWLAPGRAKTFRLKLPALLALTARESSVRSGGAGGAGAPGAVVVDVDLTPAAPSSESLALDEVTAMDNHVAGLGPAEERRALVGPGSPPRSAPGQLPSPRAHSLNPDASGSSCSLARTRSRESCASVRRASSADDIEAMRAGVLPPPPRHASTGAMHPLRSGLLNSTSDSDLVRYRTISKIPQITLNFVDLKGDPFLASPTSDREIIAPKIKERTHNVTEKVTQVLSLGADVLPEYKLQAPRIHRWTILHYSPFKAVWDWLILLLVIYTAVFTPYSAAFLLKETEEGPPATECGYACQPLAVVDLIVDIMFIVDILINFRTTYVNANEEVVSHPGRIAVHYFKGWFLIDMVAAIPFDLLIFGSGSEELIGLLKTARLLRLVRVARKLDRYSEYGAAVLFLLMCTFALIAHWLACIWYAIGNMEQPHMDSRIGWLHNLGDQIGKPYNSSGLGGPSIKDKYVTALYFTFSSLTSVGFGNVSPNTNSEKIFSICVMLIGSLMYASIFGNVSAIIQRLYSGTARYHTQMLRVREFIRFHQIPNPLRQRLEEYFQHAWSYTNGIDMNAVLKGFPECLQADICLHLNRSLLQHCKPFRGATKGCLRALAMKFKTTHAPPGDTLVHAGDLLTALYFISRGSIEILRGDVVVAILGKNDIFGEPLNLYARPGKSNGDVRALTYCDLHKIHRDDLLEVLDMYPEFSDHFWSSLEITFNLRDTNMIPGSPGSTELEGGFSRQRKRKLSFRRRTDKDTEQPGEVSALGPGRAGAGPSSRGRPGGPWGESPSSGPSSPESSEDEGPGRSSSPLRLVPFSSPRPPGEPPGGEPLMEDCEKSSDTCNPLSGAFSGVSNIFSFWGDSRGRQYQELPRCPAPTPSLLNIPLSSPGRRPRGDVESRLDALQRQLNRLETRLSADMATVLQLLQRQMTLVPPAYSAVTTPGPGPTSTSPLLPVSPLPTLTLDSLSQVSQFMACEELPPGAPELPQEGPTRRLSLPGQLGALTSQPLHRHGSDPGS
The experiment in a line: automated whole-cell patch clamp, HEK293, tail current. In kind it is cell-based. The following applies: hek293 cells. In general terms: Patch clamp records ionic current or voltage across a cell membrane.

Another data set concerns the target T5, 5-HT7 serotonin receptor (Homo sapiens, UniProt P34969).
T5 construct: gene HTR7
The experiment in a line: PDSP radioligand binding competition. The following applies: read-out: % inhibition at 10 μM.

In data set [3] the target is T6, SNAP-tagged human D2SR (SNAP-D2RS) (Homo sapiens, UniProt P14416).
T6 construct: gene DRD2
T6 sequence (P14416 1-414 isoform P14416-2): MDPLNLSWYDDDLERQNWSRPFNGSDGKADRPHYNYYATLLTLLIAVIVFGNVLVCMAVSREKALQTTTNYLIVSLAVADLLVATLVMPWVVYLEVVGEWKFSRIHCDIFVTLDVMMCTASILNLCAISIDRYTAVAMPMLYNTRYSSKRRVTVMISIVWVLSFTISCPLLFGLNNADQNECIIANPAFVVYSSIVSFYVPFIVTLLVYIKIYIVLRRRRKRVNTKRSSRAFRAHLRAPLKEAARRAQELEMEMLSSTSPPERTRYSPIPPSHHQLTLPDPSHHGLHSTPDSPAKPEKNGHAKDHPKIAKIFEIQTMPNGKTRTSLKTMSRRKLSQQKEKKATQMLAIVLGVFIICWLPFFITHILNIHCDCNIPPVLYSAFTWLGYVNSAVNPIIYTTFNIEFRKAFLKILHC
The experiment in a line: biochemical. In kind it is CHO cell membranes. Also on record: TR-FRET competition kinetic binding with PPHT-red, Motulsky-Mahan fit. Particulars: read-out: koff (min^-1).

Data set [4] deals with T1, D2. The experiment in a line: biochemical. Also on record: gene DRD2; PDSP radioligand binding competition, single concentration, % inhibition of specific binding. Particulars: read-out: ML321 (10 µM) % Inhibition.
In data set [5] the target is T7, 5-HT2A serotonin receptor (Homo sapiens, UniProt P28223).
T7 construct: gene HTR2A; DiscoverX gpcrMAX PathHunter beta-arrestin cell line, enzyme-fragment tagged receptor
T7 sequence (P28223 whole entry, the tested form may be a part): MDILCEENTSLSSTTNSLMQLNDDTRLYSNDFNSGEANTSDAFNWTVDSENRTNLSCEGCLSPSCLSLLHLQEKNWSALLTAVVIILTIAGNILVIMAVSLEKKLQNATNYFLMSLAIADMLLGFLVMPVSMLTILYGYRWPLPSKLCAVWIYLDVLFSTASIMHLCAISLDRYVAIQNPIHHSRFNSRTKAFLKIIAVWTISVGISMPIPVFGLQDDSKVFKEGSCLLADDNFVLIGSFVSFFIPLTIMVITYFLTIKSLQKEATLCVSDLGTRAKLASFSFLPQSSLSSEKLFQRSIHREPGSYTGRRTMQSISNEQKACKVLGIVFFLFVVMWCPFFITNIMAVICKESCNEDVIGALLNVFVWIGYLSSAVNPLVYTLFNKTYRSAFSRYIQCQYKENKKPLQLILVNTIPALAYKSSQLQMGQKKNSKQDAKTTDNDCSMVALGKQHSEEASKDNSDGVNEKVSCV
The experiment in a line: DiscoverX gpcrMAX beta-arrestin recruitment, antagonist mode. In kind it is cell-based. Particulars: read-out: % inhibition at 10 μM. On the technique in general: Arrestin recruitment assays detect the binding of arrestin to an activated receptor.

Data set [6] has as its target T1, D2. The data set is classed as cell-based. Also on record: gene DRD2; full length; pcDNA3.1 mutants); DiscoverX beta-galactosidase fragment fusion for beta-arrestin assay. The following applies: agonist.
Data set [7] addresses T6, SNAP-tagged human D2SR (SNAP-D2RS). The experiment in a line: TR-FRET association kinetics. The data set is classed as binding. Particulars: labelled compound; read-out: Kd (koff / kon).

T5 sequence (P34969 whole entry): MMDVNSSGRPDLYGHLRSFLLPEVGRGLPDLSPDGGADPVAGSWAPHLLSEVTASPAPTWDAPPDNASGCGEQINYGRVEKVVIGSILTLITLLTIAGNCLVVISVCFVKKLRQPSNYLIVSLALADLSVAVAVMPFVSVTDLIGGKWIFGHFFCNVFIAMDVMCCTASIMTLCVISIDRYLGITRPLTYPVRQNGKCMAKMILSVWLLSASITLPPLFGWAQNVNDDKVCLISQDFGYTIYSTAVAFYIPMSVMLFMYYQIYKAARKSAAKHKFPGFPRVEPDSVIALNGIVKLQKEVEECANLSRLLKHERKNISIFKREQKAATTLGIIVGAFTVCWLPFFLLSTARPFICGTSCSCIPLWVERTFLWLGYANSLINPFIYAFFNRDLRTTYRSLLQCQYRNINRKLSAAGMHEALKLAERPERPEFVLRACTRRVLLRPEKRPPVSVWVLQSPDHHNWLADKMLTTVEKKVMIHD

For the compound `O=C(CCCN1CCC2(CC1)C(=O)NCN2c1ccccc1)c1ccc(F)cc1` [spiperone], on D2 [1], the Ki entry was “performed using both ML321 and unlabeled spiperone (as a control) with the wild-type”.

As for `CN1C(=O)c2ccccc2[S@+]([O-])c2ccc(C(=O)NCCc3cccs3)cc21` [ML321], the inhibition at 10 µM in data set [2] was 64%; on D3, 59%; on 5-HT7 serotonin receptor, 53%; at D2 [4] it was 92%; in data set [5] it was 48%. In addition, the IC50 against hERG K+ channel was more than 25000 nM. Also, the koff in [3] was 1.3 min⁻¹.

For `NCCc1ccc(O)c(O)c1` [dopamine], the EC50 entry at D2 [6] is “EC50 and IC50 values for dopamine and ML321, respectively, were determined”.

As to PPHT-red, the Kd in [7] was 11.5 ± 0.16 nM.
